How the values were obtained:
Assay type in all cases: in vivo
[1] = system: Echinochloa crus-galli var. crus-galli; assay: Test Example 4: herbicidal effect by soil treatment (symbol H); settings: for H (Echinochloa crus-galli var. crus-galli) herbicidal effect grade: application herbicide amount 320 g/ha; for H: Echinochloa crus-galli var. crus-galli, herbicidal effect grade: 320 g/ha
Summary of the method: (§1)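 Seeds were sown in sterilized diluvial soil, covered with about 1.5 cm of soil, and the soil surface was sprayed with a water-diluted emulsion of the compound at a predetermined rate. Plants grew in a greenhouse at 25° C. to 30° C.; effects were scored visually 3 weeks after application.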

[2] = system: Setaria viridis; assay: Test Example 5: herbicidal effect by foliage application, plastic box (symbol G); settings: 320 g/ha, 3 weeks after application
Summary of the method: (§2)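 After sowing into sterilized diluvial soil and growing two weeks under glass at 25° C. to 30° C., seedlings receive a uniform foliar spray of diluted emulsion. Damage is judged visually three weeks on.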

[3] = system: rice plant; assay: Test Example 5: effect on crop by foliage application, plastic box (symbol b); settings: 320 g/ha, 3 weeks after application
Summary of the method: (§3)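 Foliage-application test plants come from spot sowing in sterilized diluvial soil under a soil layer of about 1.5 cm, grown at 25° C. to 30° C. in a greenhouse.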

[4] = system: Echinochloa oryzacola Vasing.; assay: Test Example 1: herbicidal activity, application before weed generation in submerged conditions (symbol A); settings: application herbicide amount 320 g/ha
Summary of the method: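 Scores run 0 to 5 by herbicidal ratio, with 5 meaning 90% or more and 0 meaning 5% or lower, read 3 weeks after treatment. Compound was applied as a diluted emulsion to the water surface of submerged alluvial-soil pots on the day weed seeds were sown.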

[5] = system: Apera spica-venti; assay: Test Example 5: herbicidal effect by foliage application, plastic box (symbol L); settings: 320 g/ha, 3 weeks after application
Summary of the method: as §2

[6] = system: soybean; assay: Test Example 5: effect on crop by foliage application, plastic box (symbol d); settings: 320 g/ha, 3 weeks after application
Summary of the method: as §3

[7] = system: Echinochloa crus-galli var. crus-galli; assay: Test Example 3: herbicidal effect by foliage application, Wagner pot (symbol H); settings: application herbicide amount 320 g/ha
Summary of the method: (§4)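 In a shallow-flooded alluvial soil system held at 25–30 °C, plants including rice grew for 14 days and were then sprayed over the foliage with emulsion diluted to a fixed herbicide amount. Visual rating followed at 3 weeks.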

[8] = system: beet; assay: Test Example 5: effect on crop by foliage application, plastic box (symbol f); settings: 320 g/ha, 3 weeks after application
Summary of the method: as §3

[9] = system: Stellaria media; assay: Test Example 5: herbicidal effect by foliage application, plastic box (symbol P); settings: 320 g/ha, 3 weeks after application
Summary of the method: as §2

[10] = system: Echinochloa oryzacola Vasing.; assay: Test Example 2: herbicidal activity, application during weed generation in submerged conditions (symbol A); settings: Table 23; application herbicide amount 320 g/ha; grade 0-5 by criteria of Test Example 1
Summary of the method: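 Compound was applied as a water-diluted emulsion into the standing water of flooded pots (4 cm) once co-sown weeds reached one to two leaves. Greenhouse temperature was 25° C. to 30° C., soil was alluvial, and each species was rated visually after 3 weeks.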

[11] = system: Apera spica-venti; assay: Test Example 4: herbicidal effect by soil treatment (symbol L); settings: for L (Apera spica-venti) herbicidal effect grade: application herbicide amount 320 g/ha; for L: Apera spica-venti, herbicidal effect grade: 320 g/ha
Summary of the method: as §1

[12] = system: Cyperus difformis; assay: Test Example 3: herbicidal effect by foliage application, Wagner pot (symbol E); settings: application herbicide amount 320 g/ha
Summary of the method: as §4

[13] = system: Amaranthus retroflexus; assay: Test Example 4: herbicidal effect by soil treatment (symbol N); settings: for N (Amaranthus retroflexus) herbicidal effect grade: application herbicide amount 320 g/ha; for N: Amaranthus retroflexus, herbicidal effect grade: 320 g/ha
Summary of the method: as §1

| Compound | H (Echinochloa crus-galli var. crus-galli) herbicidal effect grade [1] | G: Setaria viridis, herbicidal effect grade [2] | b: directly sowed rice plant, effect on crop grade [3] | Herbicidal effect grade, A: Echinochloa oryzacola Vasing. [4] | L: Apera spica-venti, herbicidal effect grade [5] | d: soybean, effect on crop grade [6] | herbicidal effect on H (Echinochloa crus-galli var. crus-galli), grade 0-5 [7] | f: beet, effect on crop grade [8] | P: Stellaria media, herbicidal effect grade [9] | Herbicidal effect grade, A: Echinochloa oryzacola Vasing. [10] | L (Apera spica-venti) herbicidal effect grade [11] | herbicidal effect on E, grade 0-5 [12] | N (Amaranthus retroflexus) herbicidal effect grade [13] | H: Echinochloa crus-galli var. crus-galli, herbicidal effect grade [1] | G: Setaria viridis, herbicidal effect (criteria 0-5) [2] | b: directly sowed rice plant, effect on crop (criteria 0-5) [3] | L: Apera spica-venti, herbicidal effect (criteria 0-5) [5] | d: soybean, effect on crop (criteria 0-5) [6] | f: beet, effect on crop (criteria 0-5) [8] | P: Stellaria media, herbicidal effect (criteria 0-5) [9] | other results |
| --- | --- | --- | --- | --- | --- | --- | --- | --- | --- | --- | --- | --- | --- | --- | --- | --- | --- | --- | --- | --- | --- |
| CON=C(CC1CC(O)=C(c2c(C)cc(C)cc2C)C1=O)C(C)C (stereo not drawn) [1-048] | 5 (Herbicidal ratio of 90% or more (almost completely withered)) | 4 (Herbicidal ratio of 70% or higher and lower than 90%) | 5 (Herbicidal ratio of 90% or more (almost completely withered)) | 5 (Herbicidal ratio of 90% or more (almost completely withered)) | 5 (Herbicidal ratio of 90% or more (almost completely withered)) | 0 (Herbicidal ratio of 5% or lower (almost no effect)) | 5 (Herbicidal ratio of 90% or more (almost completely withered)) | 1 (Herbicidal ratio of 5% or higher and lower than 20%) | 3 (Herbicidal ratio of 40% or higher and lower than 70%) | 5 (Herbicidal ratio of 90% or more (almost completely withered)) | 5 (Herbicidal ratio of 90% or more (almost completely withered)) | 5 (Herbicidal ratio of 90% or more (almost completely withered)) | 1 (Herbicidal ratio of 5% or higher and lower than 20%) |  |  |  |  |  |  |  |  |
| CON=C(C)CC1CC(OC(=O)COc2ccc(Br)cc2)=C(c2c(C)cc(C)cc2C)C1=O (stereo not drawn) [1-081] |  |  |  | 5 (Herbicidal ratio of 90% or more (almost completely withered)) |  |  | 5 (Herbicidal ratio of 90% or more (almost completely withered)) |  |  | 5 (Herbicidal ratio of 90% or more (almost completely withered)) |  | 5 (Herbicidal ratio of 90% or more (almost completely withered)) |  | 5 (Herbicidal ratio of 90% or more (almost completely withered)) | 5 (Herbicidal ratio of 90% or more (almost completely withered)) | 5 (Herbicidal ratio of 90% or more (almost completely withered)) | 5 (Herbicidal ratio of 90% or more (almost completely withered)) | 5 (Herbicidal ratio of 90% or more (almost completely withered)) | 0 (Herbicidal ratio of 5% or lower (almost no effect)) | 0 (Herbicidal ratio of 5% or lower (almost no effect)) | L: Apera spica-venti, herbicidal effect grade [11]: 5 (Herbicidal ratio of 90% or more (almost completely withered)); N: Amaranthus retroflexus, herbicidal effect grade [13]: 4 (Herbicidal ratio of 70% or higher and lower than 90%) |
| CON=C(C)CC1CC(OC(=O)C(C)(C)Oc2ccccc2Cl)=C(c2c(C)cc(C)cc2C)C1=O (stereo not drawn) [1-064] | 5 (Herbicidal ratio of 90% or more (almost completely withered)) | 5 (Herbicidal ratio of 90% or more (almost completely withered)) | 5 (Herbicidal ratio of 90% or more (almost completely withered)) | 5 (Herbicidal ratio of 90% or more (almost completely withered)) | 5 (Herbicidal ratio of 90% or more (almost completely withered)) | 4 (Herbicidal ratio of 70% or higher and lower than 90%) | 5 (Herbicidal ratio of 90% or more (almost completely withered)) | 1 (Herbicidal ratio of 5% or higher and lower than 20%) | 1 (Herbicidal ratio of 5% or higher and lower than 20%) | 5 (Herbicidal ratio of 90% or more (almost completely withered)) | 5 (Herbicidal ratio of 90% or more (almost completely withered)) | 5 (Herbicidal ratio of 90% or more (almost completely withered)) | 4 (Herbicidal ratio of 70% or higher and lower than 90%) |  |  |  |  |  |  |  |  |
| CON=C(CC1CC(O)=C(c2c(C)cc(C)cc2C)C1=O)C1CCCCC1 (stereo not drawn) [1-085] |  |  |  | 4 (Herbicidal ratio of 70% or higher and lower than 90%) |  |  | 5 (Herbicidal ratio of 90% or more (almost completely withered)) |  |  | 3 (Herbicidal ratio of 40% or higher and lower than 70%) |  | 0 (Herbicidal ratio of 5% or lower (almost no effect)) |  | 1 (Herbicidal ratio of 5% or higher and lower than 20%) | 5 (Herbicidal ratio of 90% or more (almost completely withered)) | 4 (Herbicidal ratio of 70% or higher and lower than 90%) | 3 (Herbicidal ratio of 40% or higher and lower than 70%) | 0 (Herbicidal ratio of 5% or lower (almost no effect)) | 0 (Herbicidal ratio of 5% or lower (almost no effect)) | 0 (Herbicidal ratio of 5% or lower (almost no effect)) | L: Apera spica-venti, herbicidal effect grade [11]: 3 (Herbicidal ratio of 40% or higher and lower than 70%); N: Amaranthus retroflexus, herbicidal effect grade [13]: 0 (Herbicidal ratio of 5% or lower (almost no effect)) |
| CC(CC1CC(O)=C(c2c(C)cc(C)cc2C)C1=O)=NOCC1CC1 (stereo not drawn) [1-024] | 5 (Herbicidal ratio of 90% or more (almost completely withered)) | 5 (Herbicidal ratio of 90% or more (almost completely withered)) | 5 (Herbicidal ratio of 90% or more (almost completely withered)) | 5 (Herbicidal ratio of 90% or more (almost completely withered)) | 5 (Herbicidal ratio of 90% or more (almost completely withered)) | 2 (Herbicidal ratio of 20% or higher and lower than 40%) | 5 (Herbicidal ratio of 90% or more (almost completely withered)) | 0 (Herbicidal ratio of 5% or lower (almost no effect)) | 3 (Herbicidal ratio of 40% or higher and lower than 70%) | 5 (Herbicidal ratio of 90% or more (almost completely withered)) | 5 (Herbicidal ratio of 90% or more (almost completely withered)) | 5 (Herbicidal ratio of 90% or more (almost completely withered)) | 4 (Herbicidal ratio of 70% or higher and lower than 90%) |  |  |  |  |  |  |  |  |
| CON=C(C)CC1CC(OC(=O)C(C)(C)F)=C(c2c(C)cc(C)cc2C)C1=O (stereo not drawn) [1-039] | 5 (Herbicidal ratio of 90% or more (almost completely withered)) | 5 (Herbicidal ratio of 90% or more (almost completely withered)) | 5 (Herbicidal ratio of 90% or more (almost completely withered)) | 5 (Herbicidal ratio of 90% or more (almost completely withered)) | 5 (Herbicidal ratio of 90% or more (almost completely withered)) | 4 (Herbicidal ratio of 70% or higher and lower than 90%) | 5 (Herbicidal ratio of 90% or more (almost completely withered)) | 3 (Herbicidal ratio of 40% or higher and lower than 70%) | 3 (Herbicidal ratio of 40% or higher and lower than 70%) | 5 (Herbicidal ratio of 90% or more (almost completely withered)) | 5 (Herbicidal ratio of 90% or more (almost completely withered)) | 5 (Herbicidal ratio of 90% or more (almost completely withered)) | 5 (Herbicidal ratio of 90% or more (almost completely withered)) |  |  |  |  |  |  |  |  |

Reference: patent US11000033B2, “Ketone or oxime compound, and herbicide” (NISSAN CHEMICAL CORPORATION, priority 2014, dated 2021)
